The nature of data set [1]: Apparent permeability from apical to basolateral side in human Caco2 cells at 10 uM at pH 6.5 after 60 mins by LC-MS analysis. It is filed as ADME, cell-based. As to conditions: Caco-2, pH 6.5. For orientation: Caco-2 monolayers are a common model of the intestinal barrier.
A short description of data set [2]: in vitro. The conditions noted are these: human, liver microsomes. On the technique in general: Microsomes from liver hold many membrane-bound enzymes, among them those of drug oxidation.
Description: Half life in human liver microsomes at 1 mg/ml
A short description of the next data set: physchem. As to conditions: buffer, pH 7.4.
Data set [3] in a line: in vitro. The conditions noted are these: human, Caco-2, pH 7.4.
Description: (§1) Apparent permeability from apical to basolateral side in human Caco2 cells at 10 uM at pH 7.4 after 60 mins by LC-MS analysis
The target in data set [4] is T1, P2Y purinoceptor 12 (Homo sapiens, UniProt Q9H244).
T1 sequence (Q9H244 whole entry): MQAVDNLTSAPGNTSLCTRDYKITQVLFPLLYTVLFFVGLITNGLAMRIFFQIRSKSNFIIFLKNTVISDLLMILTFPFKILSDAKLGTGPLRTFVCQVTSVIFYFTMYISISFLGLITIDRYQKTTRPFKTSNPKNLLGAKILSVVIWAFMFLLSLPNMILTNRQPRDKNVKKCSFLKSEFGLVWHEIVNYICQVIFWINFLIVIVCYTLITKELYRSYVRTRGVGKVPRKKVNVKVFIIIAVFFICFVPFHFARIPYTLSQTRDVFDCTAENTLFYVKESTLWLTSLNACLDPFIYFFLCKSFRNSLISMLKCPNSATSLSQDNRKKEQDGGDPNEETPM
Description: Antagonist activity at P2Y12 receptor (unknown origin) assessed as inhibition of ADP-induced [35S]GTPgammaS binding after 45 mins by scintillation counting analysis
Data set [5] can be described thus: Aqueous solubility of the compound. The format is physicochemical. The conditions noted are these: buffer.
The nature of data set [6]: Half life in Beagle dog at 1 umol/kg, iv. It is filed as ADME, organism-based, Canis lupus familiaris. The conditions noted are these: in vivo.
The target of data set [7] is T2, Thromboxane A2 receptor (Homo sapiens) (UniProt P21731).
T2 sequence (whole entry): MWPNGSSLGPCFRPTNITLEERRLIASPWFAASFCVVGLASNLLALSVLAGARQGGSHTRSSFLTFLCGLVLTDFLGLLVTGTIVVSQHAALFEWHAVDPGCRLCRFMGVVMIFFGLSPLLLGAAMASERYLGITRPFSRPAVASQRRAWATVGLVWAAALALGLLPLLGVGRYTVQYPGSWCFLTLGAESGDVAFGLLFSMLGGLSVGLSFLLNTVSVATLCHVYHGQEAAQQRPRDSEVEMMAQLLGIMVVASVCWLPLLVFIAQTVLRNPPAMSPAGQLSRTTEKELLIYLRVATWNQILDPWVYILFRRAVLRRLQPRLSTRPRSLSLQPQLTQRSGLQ
Put plainly: Binding affinity to thromboxane A2 receptor (unknown origin) at 10 uM.

The subject of data set [8] is Canis familiaris. In words: Toxicity in dog Folt's model of arterial thrombosis assessed as prolongation of bleeding time at 0.001 to 0.1 umol/kg/min. The format is organism-based, Canis lupus familiaris. As to conditions: in vivo, iv.
Data set [9] addresses T1, P2Y purinoceptor 12. Put plainly: Displacement of [125I]AZ11931285 from human P2Y12 receptor expressed in CHOK1 cell membrane after 30 seconds. Also noted: species or system CHO-K1. In general terms: Loss of bound radioactivity is the signal in a displacement assay; it reports binding, not function.
Data set [10] has as its system Canis familiaris. In words: Antithrombotic activity in conscious dog assessed as inhibition of platelet aggregation administered via infusion. It is filed as functional, Canis lupus familiaris.
In data set [11] the target is Platelet-activating factor receptor (Homo sapiens) (UniProt P25105). Put plainly: Binding affinity to PAF receptor (unknown origin) at 10 uM.
Platelet-activating factor receptor (Homo sapiens), sequence (P25105 whole entry): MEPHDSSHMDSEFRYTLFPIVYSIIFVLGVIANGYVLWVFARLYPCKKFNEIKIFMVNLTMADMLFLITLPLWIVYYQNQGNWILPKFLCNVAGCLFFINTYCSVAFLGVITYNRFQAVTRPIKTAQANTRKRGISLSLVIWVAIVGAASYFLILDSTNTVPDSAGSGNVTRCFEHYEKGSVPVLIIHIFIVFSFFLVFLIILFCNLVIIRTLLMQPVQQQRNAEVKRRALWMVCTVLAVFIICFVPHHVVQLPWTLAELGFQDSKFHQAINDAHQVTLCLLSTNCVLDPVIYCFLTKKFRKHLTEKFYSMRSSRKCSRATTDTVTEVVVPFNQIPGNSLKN
Data set [12] concerns the target T1, P2Y purinoceptor 12. In words: Displacement of [125I]AZ11931285 from human P2Y12 receptor expressed in CHOK1 cell membrane after 10 seconds. Also noted: species or system CHO-K1.
In data set [13] the target is T1, P2Y purinoceptor 12. Put plainly: Displacement of [125I]AZ11931285 from human P2Y12 receptor expressed in CHOK1 cell membrane after 60 seconds. More on the design: species or system CHO-K1.
The species entered for data set [14] is Canis familiaris. In words: Antithrombotic activity in dog Folt's model of arterial thrombosis assessed as inhibition of platelet aggregation. It is filed as functional, Canis lupus familiaris.
Data set [15] addresses T1, P2Y purinoceptor 12. In words: Displacement of [125I]AZ11931285 from human P2Y12 receptor expressed in CHOK1 cell membrane after 60 mins. Also noted: species or system CHO-K1.
Data set [16] in a line: AUC in Beagle dog at 1 umol/kg, iv. It is filed as ADME, organism-based, Canis lupus familiaris. The conditions noted are these: plasma.
The subject of data set [17] is Canis familiaris. In words: Toxicity in conscious dog assessed as prolongation of bleeding time at 0.02 to 8700 nmol/kg/min administered via infusion relative to control. The format is organism-based, Canis lupus familiaris. The conditions noted are these: in vivo, iv.
In data set [18] the target is P2Y purinoceptor 1 (Homo sapiens) (UniProt P47900). In words: Binding affinity to P2Y1 receptor (unknown origin) at 10 uM.
P2Y purinoceptor 1 (Homo sapiens), sequence (P47900 whole entry): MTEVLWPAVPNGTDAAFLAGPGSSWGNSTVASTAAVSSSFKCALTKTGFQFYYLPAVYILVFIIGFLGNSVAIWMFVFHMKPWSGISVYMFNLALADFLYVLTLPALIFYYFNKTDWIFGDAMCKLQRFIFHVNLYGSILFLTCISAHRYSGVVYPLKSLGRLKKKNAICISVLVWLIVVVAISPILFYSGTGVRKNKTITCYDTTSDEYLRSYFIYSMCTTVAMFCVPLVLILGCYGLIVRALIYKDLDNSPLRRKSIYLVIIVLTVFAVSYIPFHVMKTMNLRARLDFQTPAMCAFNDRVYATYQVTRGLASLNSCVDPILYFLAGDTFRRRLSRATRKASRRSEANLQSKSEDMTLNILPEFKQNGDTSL
In another data set the test system is Caco-2. As to conditions: human, caco-2, pH 7.4, 1 h, 10 µM.
Data set [19] relates to Canis familiaris. Put plainly: Toxicity in dog Folt's model of arterial thrombosis assessed as prolongation of bleeding time at 0.015 umol/kg/min. It is filed as organism-based, Canis lupus familiaris. As to conditions: in vivo, iv.
Data set [20] deals with Canis familiaris. In words: Toxicity in conscious dog assessed as prolongation of bleeding time at 1.6 umol/kg/min administered via infusion relative to control. It is filed as organism-based, Canis lupus familiaris. The conditions noted are these: in vivo, iv.
A further data set deals with Plasma. Put plainly: Fraction unbound in Beagle dog plasma at 37 degC after 18 hrs by equilibrium dialysis technique. The format is ADME, cell-free, Canis lupus familiaris.

SMILES strings stand for the structures. Converted amounts (≈) assume the structure as drawn. The source made the active and inactive calls. The calls are words filed in the database; no cut-off is given here.

Description for Caco-2: as §1
Description for physchem: Lipophilicity, log D of the compound at pH 7.4 by HPLC analysis

With `CCCC(=O)c1cc(C#N)c(N2CCC(C(=O)NS(=O)(=O)Cc3ccccc3)CC2)nc1C`, the values for the Papp A→B at 1 h, 10 µM (in [1]; in “in vitro [3]”) were 0.3 ×10⁻⁶ cm/s and 0.32 ×10⁻⁶ cm/s, respectively. The compound further returned a half-life in the data set “in vitro [2]” greater than 115 min. The compound further gave a logD in the data set “physchem” of 2.8. This compound displayed an IC50 against P2Y purinoceptor 12 [4] of 100 nM. Further, the solubility in data set [5] is greater than 100 µM.

For `CCCC(=O)c1cc(C#N)c(N2CCC(C(=O)NS(=O)(=O)Cc3ccccc3)CC2)nc1SC`, the half-life in “in vitro [2]” was greater than 115 min. This compound came in with a logD in “physchem” of 3.1. Further, the Papp A→B at 1 h, 10 µM in the data set “in vitro [3]” came to 0.3 ×10⁻⁶ cm/s. Besides, on P2Y purinoceptor 12 [4], 17 nM corresponded to half-maximal inhibition (IC50). Further, the solubility in data set [5] is greater than 100 µM.

In turn, `CCCC(=O)c1cc(C#N)c(N2CCC(C(=O)NS(=O)(=O)Cc3ccccc3)CC2)nc1CF` returned a logD in “physchem” of 2.7. In the data set “in vitro [3]”, this compound had a Papp A→B at 1 h, 10 µM of less than 0.1 ×10⁻⁶ cm/s. On P2Y purinoceptor 12 [4], this compound had an IC50 of 93 nM.

On to `CCCC(=O)c1cc(C#N)c(N2CCC(C(=O)NS(=O)(=O)Cc3ccccc3)CC2)nc1CCC`, for which the pH-dependent lipophilicity (logD) in “physchem” was found to be 3.7. This compound returned a Papp A→B at 1 h, 10 µM in “in vitro [3]” of 1.2 ×10⁻⁶ cm/s. Besides, on P2Y purinoceptor 12 [4], half-maximal inhibition (IC50) required 270 nM.

`CCOC(=O)c1cc(C#N)c(N2CCC(C(=O)NS(=O)(=O)Cc3ccccc3)CC2)nc1C`: the half-life in data set [6] is 306 min; in “in vitro [2]”, 60 min. Moreover, the outcome in [7], in data set [11] and in data set [18] was inactive. For the same compound, the Activity entry in the data set with Canis familiaris [8] and with Canis familiaris [17] was “Non-toxic” each time. The half-maximal inhibitory concentration (IC50) was 22 nM at P2Y purinoceptor 12 [9], 44 nM at P2Y purinoceptor 12 [12], 14 nM at P2Y purinoceptor 12 [13] and 9 nM at P2Y purinoceptor 12 [15]. Also, the ID80 with Canis familiaris [10] is 0.44 µmol/kg/min; in the data set listed under Canis familiaris [14] it was 0.009 µmol/kg/min. The same compound gave a logD in “physchem” of 2.8. The compound further yielded an exposure (AUC) in data set [16] of 5.9 µM·h. Moreover, in the data set with Caco-2, the Papp came to 1 ×10⁻⁶ cm/s.

`CCCC(=O)c1cc(C#N)c(N2CCC(C(=O)NS(=O)(=O)Cc3ccccc3Cl)CC2)nc1C`: the Papp A→B at 1 h, 10 µM in data set [1] was found to be 0.4 ×10⁻⁶ cm/s. Further, in the data set “in vitro [2]”, the half-life is greater than 115 min. The compound further gave a pH-dependent lipophilicity (logD) in “physchem” of 3.1. For the same compound, at P2Y purinoceptor 12 [4], the half-maximal inhibitory concentration (IC50) was found to be 270 nM. Also, in data set [5], the solubility is greater than 100 µM.

On to `CCCC(=O)c1cc(C#N)c(N2CCC(C(=O)NS(=O)(=O)Cc3ccc(F)cc3F)CC2)nc1C`, for which the Papp A→B at 1 h, 10 µM in data set [1] turned out to be 0.3 ×10⁻⁶ cm/s. In the data set “in vitro [2]”, this compound gave a half-life greater than 115 min. Further, the logD in “physchem” was 3. The half-maximal inhibitory concentration (IC50) against P2Y purinoceptor 12 [4] is 42 nM. In addition, the solubility in data set [5] was greater than 100 µM.

As to `CCCC(=O)c1cc(C#N)c(N2CCC(C(=O)NS(=O)(=O)Cc3ccc(Cl)cc3)CC2)nc1C`, the Papp A→B at 1 h, 10 µM in [1] came to 0.4 ×10⁻⁶ cm/s. The compound further had a half-life in the data set “in vitro [2]” greater than 115 min. This compound yielded a log distribution coefficient (logD) in “physchem” of 3.4. Moreover, it took 57 nM to reach half-maximal inhibition against P2Y purinoceptor 12 [4] (IC50). The solubility in [5] is greater than 100 µM.

For the compound `CCCC(=O)c1cc(C#N)c(N2CCC(C(=O)NS(=O)(=O)Cc3ccc(C)cc3)CC2)nc1C`, the apparent permeability from apical to basolateral (Papp A→B) at 1 h, 10 µM in data set [1] came out at 1.4 ×10⁻⁶ cm/s. The same compound displayed a half-life in the data set “in vitro [2]” greater than 115 min. For the same compound, the logD in the data set “physchem” was found to be 3.4. The compound further came in with a concentration for half-maximal inhibition (IC50) against P2Y purinoceptor 12 [4] of 59 nM. The solubility in [5] is greater than 100 µM.

Regarding `CCCC(=O)c1cc(C#N)c(N2CCC(C(=O)NS(=O)(=O)Cc3ccc(C)c(F)c3)CC2)nc1C`, the Papp A→B at 1 h, 10 µM in [1] was 0.7 ×10⁻⁶ cm/s. The compound further came in with a half-life in the data set “in vitro [2]” greater than 115 min. The compound further gave a logD in “physchem” of 3.4. On P2Y purinoceptor 12 [4], the concentration for half-maximal inhibition (IC50) amounted to 130 nM. Further, the solubility in data set [5] is greater than 100 µM.

In the data set “physchem”, `CCCC(=O)c1cc(C#N)c(N2CCC(C(=O)NS(=O)(=O)Cc3ccccc3)CC2)nc1OC` gave a logD of 3.

On to `CCCC(=O)c1cc(C#N)c(N2CCC(C(=O)NS(=O)(=O)C(C)c3ccccc3)CC2)nc1C` (racemic), for which the Papp A→B at 1 h, 10 µM in data set [1] is 1 ×10⁻⁶ cm/s. In “in vitro [2]”, this compound returned a half-life greater than 115 min. This compound also yielded a logD in “physchem” of 3.3. Further, on P2Y purinoceptor 12 [4], the half-maximal inhibitory concentration (IC50) is 190 nM. The solubility in [5] was greater than 100 µM.

Regarding `CCCC(=O)c1cc(C#N)c(N2CCC(C(=O)NS(=O)(=O)C3(c4ccccc4)CC3)CC2)nc1C`, in [1], the apparent permeability from apical to basolateral (Papp A→B) at 1 h, 10 µM turned out to be 5.2 ×10⁻⁶ cm/s. This compound showed a half-life in the data set “in vitro [2]” greater than 115 min. Further, in the data set “physchem”, the pH-dependent lipophilicity (logD) amounted to 3.9. For the same compound, on P2Y purinoceptor 12 [4], the half-inhibitory concentration (IC50) is 160 nM. Further, the solubility in data set [5] was greater than 100 µM.

Turning to `CCCC(=O)c1cc(C#N)c(N2CCC(C(=O)NS(=O)(=O)C3(c4ccccc4)CC3)CC2)nc1SC`, the half-life in data set [6] is 312 min; in “in vitro [2]” it was greater than 115 min. Moreover, the result in data set [7], in data set [11] and in data set [18] was inactive. Moreover, the concentration for half-maximal inhibition (IC50) at P2Y purinoceptor 12 [9] came out at 41 nM; on P2Y purinoceptor 12 [12], 126 nM; at P2Y purinoceptor 12 [13] it was 23 nM; at P2Y purinoceptor 12 [15], 4 nM; against P2Y purinoceptor 12 [4], 19 nM. Further, the ID80 in the data set on Canis familiaris [10] is 0.052 µmol/kg/min; in the data set listed under Canis familiaris [14], 0.005 µmol/kg/min. In addition, the inhibition result with Canis familiaris [10] (Canis lupus familiaris) is “Dose-dependent effect”. Besides, the Activity result with Canis familiaris [19] is “Toxic”. The “fold change (FC)” value in the data set with Canis familiaris [20] is reported as 6.7. The compound also gave an exposure (AUC) in [16] of 6.7 µM·h. The compound also registered an apical-to-basolateral permeability (Papp A→B) at 1 h, 10 µM in “in vitro [3]” of 2 ×10⁻⁶ cm/s. The compound further returned a Fu in the data set on Plasma of 0.41%. For the same compound, the solubility in data set [5] turned out to be 78 µM (≈ 41.1 µg/mL).

One may read the Papp A→B as the apparent permeability from the apical to the basolateral side of a cell layer. One may read the half-life as how long it takes for the measured level to halve. The term logD denotes lipophilicity at a set pH, counting ionised and neutral species. A word on the IC50: it is the midpoint of a concentration-inhibition curve. Lower therefore signals higher potency. A word on the solubility: it is the dissolved amount per volume that the medium holds. Read a high solubility as much dissolved substance. What is called AUC is concentration integrated over time. Broadly, the Papp is a coefficient for how fast a substance crosses the barrier.

Source of the values: ChEMBL document CHEMBL3286224, “Optimization of ketone-based P2Y(12) receptor antagonists as antithrombotic agents: pharmacodynamics and receptor kinetics considerations” (Bioorg Med Chem Lett, 2014).
